Test results reported in patent publication US20100184186A1, “NOVEL RIGIDOPORUS MICROPORUS LACCASE” (Academia Sinica, priority 2009, published 2010).

Assays:
[1] = tested on: Rigidoporus microporus BCRC 35318 laccase Lcc35, native (wild type), mature form SEQ ID NO:1; assay: Inhibitor effects on Lcc35 laccase activity (ABTS as the substrate); assay type: biochemical, R. microporus BCRC 35318; settings: 10 min; for Relative activity (residual laccase activity with inhibitor; None = 100.0): pre-incubated pH 5.0, 30° C.
Protocol: (§1) To isolate the laccase from R. microporus BCRC 35318, eight-day-old mycelial disks (8 mm in diameter) collected from the PDA plate mentioned above were inoculated into a basal medium containing (per liter) 10 g glucose, 0.22 g ammonium tartrate, 0.9 g K2HPO4, 0.1 g KH2PO4, 0.05 g MgSO4.7H2O, 0.5 g CaCl2, 0.01 g Thiamine HCl, and 10 ml solution (0.08 g CuSO4.5H2O, 0.07 g MnSO4.4H2O, 4.3 g ZnSO4.7H2O and 0.05 g FeSO4.7H2O per liter). The pH of the medium was adjusted to 5.5. After being cultured for 10 days at 30° C. in a rotary shaker with a speed setting of 125 rpm, the supernatant of the fungal culture thus obtained was collected and passed through a […] filter (Nalgene) to remove fungal cells. The filtrate was mixed with 100% ammonium sulfate for protein precipitation. The precipitated proteins were dissolved in 40 ml of a 10 mM sodium acetate buffer (pH 6.0) and the resultant solution was dialyzed against the same acetate buffer overnight to remove co-precipitated ammonium sulfate and then concentrated to 4 ml by ultracentrifugal filteration with a molecular cutoff of 10 kDa (Amicon).
Next, the laccase activities of Lcc35 under various pH conditions were determined, following the method described in Lu et al., Appl. Microbiol. Biotechnol., 2007, 74, (6), 1232-1239. 0.01 ml of the Lcc35-containing solution was mixed with (i) 0.49 ml of a 50 mM reaction buffer of glycine-HCl (pH 2.0 to 3.0), sodium acetate (pH 4.0 to 6.0), or sodium phosphate (pH 7.0 to 8.0) and (ii) 0.5 ml of a substrate solution containing 2 mM ABTS, 1 mM [N,N′-bis(3,5-dimethoxy-4-hydroxybenzylidene)hydrazine] (SGZ), or 0.04% RBBR. After being incubated at 30° C. for 1 min (when ABST or SGZ was the substrate) or for 4 hours (when RBBR was the substrate), each of the reaction mixtures was examined with a spectrophotometer to determine its optical density at 420 nm (when ABST was the substrate), at 530 nm (when SGZ was the substrate), or at 585 nm (when RBBR was the substrate). One unit of laccase activity was defined as the amount of Lcc35 that oxidized 1 μmol substrate per min. […]

[2] = tested on: Lcc35; assay: Inhibitor effects on Lcc35 laccase activity; assay type: biochemical, R. microporus BCRC 35318; settings: ABTS substrate; for Relative activity (%) of Lcc35: pre-incubation pH 5.0, 30° C., 10 min
Protocol: The inhibitory effects of NaN3, ethylenediaminetetraacetic acid (EDTA), dithiothreitol (DTT), and L-Cysteine on Lcc35 were examined as follows. Lcc35 was pre-incubated in a solution (pH 5.0) containing one of the test compounds at 30° C. for 10 min. The laccase activity was then examined using ABTS as the substrate.

[3] = tested on: R. microporus BCRC 35318; assay: Effects of inducers on laccase production in R. microporus; assay type: cell-based; settings: for Yield of laccase production: inducer 1 mM in basal medium
Protocol: as §1
R. microporus BCRC 35318 cells were cultured in the basal medium described in Example 1 above, which was supplemented with veratryl alcohol, 4-hydroxybenxoic acid, ferulic acid, or rice straw powder. Lcc35 were isolated from the culture supernatants following the method also described above and its activity was determined.

[4] = tested on: Rigidoporus microporus BCRC 35318 laccase Lcc35, native (wild type), mature form SEQ ID NO:1; assay: Kinetic constants of Lcc35 for digesting ABTS and SGZ (initial reaction rates at various substrate concentrations); assay type: biochemical, R. microporus BCRC 35318
Protocol: The pH of the medium was adjusted to 5.5. After being cultured for 10 days at 30° C. in a rotary shaker with a speed setting of 125 rpm, the supernatant of the fungal culture thus obtained was collected and passed through a […] filter (Nalgene) to remove fungal cells. […] The precipitated proteins were dissolved in 40 ml of a 10 mM sodium acetate buffer (pH 6.0) and the resultant solution was dialyzed against the same acetate buffer overnight to remove co-precipitated ammonium sulfate and then concentrated to 4 ml by ultracentrifugal filteration with a molecular cutoff of 10 kDa (Amicon). Next, the laccase activities of Lcc35 under various pH conditions were determined, following the method described in Lu et al., Appl. Microbiol. […] After being incubated at 30° C. for 1 min (when ABST or SGZ was the substrate) or for 4 hours (when RBBR was the substrate), each of the reaction mixtures was examined with a spectrophotometer to determine its optical density at 420 nm (when ABST was the substrate), at 530 nm (when SGZ was the substrate), or at 585 nm (when RBBR was the substrate). […] Kinetic constants of Lcc35 for digesting ABTS and SGZ were determined based on the initial reaction rates of Lcc35 at various substrate concentrations. The enzymatic reactions were taken place at pH 5 (for ABST) or pH 6 (for SGH) and 70° C.

[5] = Laccase activity under various pH conditions, ABTS substrate; assay type: biochemical; settings: 30° C., 1 min
Protocol: (§2) Next, the laccase activities of Lcc35 under various pH conditions were determined, following the method described in Lu et al., Appl. Microbiol. Biotechnol., 2007, 74, (6), 1232-1239. 0.01 ml of the Lcc35-containing solution was mixed with (i) 0.49 ml of a 50 mM reaction buffer of glycine-HCl (pH 2.0 to 3.0), sodium acetate (pH 4.0 to 6.0), or sodium phosphate (pH 7.0 to 8.0) and (ii) 0.5 ml of a substrate solution containing 2 mM ABTS, 1 mM [N,N′-bis(3,5-dimethoxy-4-hydroxybenzylidene)hydrazine] (SGZ), or 0.04% RBBR. After being incubated at 30° C. for 1 min (when ABST or SGZ was the substrate) or for 4 hours (when RBBR was the substrate), each of the reaction mixtures was examined with a spectrophotometer to determine its optical density at 420 nm (when ABST was the substrate), at 530 nm (when SGZ was the substrate), or at 585 nm (when RBBR was the substrate). One unit of laccase activity was defined as the amount of Lcc35 that oxidized 1 μmol substrate per min.

[6] = Isoelectric focusing with PhastGel IEF 3-9; assay type: physicochemical
Protocol: First, the isoelectric focusing point of Lcc35 was determined with PhastGel IEF 3-9 (GE Healthcare), following the method described in Hackler et al., Anal. Biochem. 1995, 230, (2), 281-289. Briefly, the Lcc35-containing solution mentioned above was loaded on a PhastGel IEF 3-9 gel.

[7] = pH stability of Lcc35; assay type: physicochemical; settings: incubated at 30° C. for 20 hours, ABTS substrate
Protocol: The Lcc35 solution was incubated under various pH conditions at 30° C. 20 hours later, the laccase activity in the solution was determined, using ABST as the substrate.

[8] = Activity comparison with T. versicolor laccase, ABTS assay; assay type: biochemical
Protocol: as §2
(§3) The laccase activity of Lcc35 was compared with Trametes versicolor laccase (provided by Fluka Co.), using either ABST or SGZ as the substrate according to the methods described above.

[9] = Laccase activity under various pH conditions, SGZ substrate; assay type: biochemical; settings: 30° C., 1 min
Protocol: as §2

[10] = Thermal stability of Lcc35; assay type: physicochemical; settings: pH 6.0, 30-70° C. for 10, 30 or 60 minutes
Protocol: To determine thermal stability of Lcc35, the enzyme solution was incubated under pH 6.0 at various temperatures (i.e., 30° C., 40° C., 50° C., 60° C., and 70° C.) for 10, 30, or 60 minutes.

[11] = Laccase activity at various temperatures; assay type: biochemical; settings: ABTS substrate, sodium acetate buffer pH 5.0, 1 minute, 25-90° C.
Protocol: The laccase activity of Lcc35 was determined at various temperatures (i.e., ranging from 25-90° C.), using ABST as the substrate. The Lcc35-containing solution was incubated with ABST and a sodium acetate buffer (pH 5.0) for 1 minute and the enzymatic activity was examined afterwards.

[12] = ABTS overlay activity assay on basic-native PAGE gel; assay type: biochemical; settings: ABTS reaction buffer 1 mM, pH 3, room temperature
Protocol: The laccase activity of this 55kDa protein was determined by an [2,2-azinobis(3-ethylbenzathiazoline-6-sulfonic acid)] (ABTS) overlay activity assay. See Lebendiker M BASIC-NATIVE GEL Protocol, wolfson.huji.ac.il/purification/Protocols/PAGE_Basic.html. A basic-native PAGE gel containing the 55 kDa protein was incubated in an ABTS reaction buffer (1 mM, pH 3) at room temperature.

[13] = Optimal pH with artificial lignin on agar micro-titer plate; assay type: biochemical; settings: 0.1% lignin substrate, 30° C., 4 hr
Protocol: The optimal pH of Lcc35 was also examined using an artificial lignin as a substrate, as follows. Each of the reaction buffers listed above was mixed with 0.1% lignin (Sigma #471003) and the mixture was placed in wells of an agar micro-titter plate. 10 μl of the Lcc35-containing suspension was placed at the center of each well. The agar plate was incubated at 30° C. for 4 hr to allow degradation of the artificial lignin by Lcc35.

[14] = Activity comparison with T. versicolor laccase, SGZ assay; assay type: biochemical; settings: SGZ substrate; laccase amount by SDS-PAGE and ImageQuant TL 7.0
Protocol: as §2, §3

[15] = Enzymatic activity of purified Lcc35; assay type: biochemical; settings: isolated as in Example 1; culture with 1 mM 4-hydroxybenzoic acid
Protocol: as §1
See Cambria et al., Protein Expr. Purif. 2000, 18, (2), 141-147; and Liu et al., Appl. Microbiol. Biotechnol. 2003, 63, (2), 174-181. Following the isolation process described in Example 1 above, purified Lcc35 was obtained with a recovery rate of about 55% and an enzymatic activity of 289.8 U/ml.

[16] = Laccase activity under various pH conditions, RBBR de-colorization; assay type: biochemical; settings: RBBR substrate, 30° C., 4 hours
Protocol: as §2

[17] = substrate SGZ, pH 6, 70° C., 530 nm
[18] = substrate ABTS, pH 5, 70° C., 420 nm

## [N-]=[N+]=[N-].[Na+] [NaN3]
[1]; 0.1 mM compound
  Relative activity (residual laccase activity with inhibitor; None = 100.0): 50.0%
[1]; 1.0 mM compound
  Relative activity (residual laccase activity with inhibitor; None = 100.0): 17.0%
[1]; concentrations of Table 2, pH 5.0, 30° C.
  inhibitory effect on Lcc35 (in words): substantially inhibited
[2]
  inhibitory effect on Lcc35 activity (in words): substantially inhibited
[2]; compound 0.1 mM
  Relative activity (%) of Lcc35: 50.0%
[2]; compound 1.0 mM
  Relative activity (%) of Lcc35: 17.0%

## N[C@@H](CS)C(=O)O [L-Cysteine]
[2]; compound 0.1 mM
  Relative activity (%) of Lcc35: 97.2%
[2]; compound 1.0 mM
  Relative activity (%) of Lcc35: 92.7%

## COc1cc(/C=C/C(=O)O)ccc1O [Ferulic acid, ferulic acid]
[3]
  Yield of laccase production: 2.4 Unit ml^−1

## COc1ccc(CO)cc1OC [Veratryl alcohol, veratryl alcohol]
[3]
  Yield of laccase production: 3.4 Unit ml^−1

## O=C(O)c1ccc(O)cc1 [4-Hydroxybenzoic acid, 4-hydroxybenzoic acid]
[3]
  Yield of laccase production: 10.5 Unit ml^−1
[3]; versus no inducer
  increase of Lcc35 production: 10.5 fold

## O=C(O)CN(CCN(CC(=O)O)CC(=O)O)CC(=O)O [EDTA, ethylenediaminetetraacetic acid]
[2]; compound 10.0 mM
  Relative activity (%) of Lcc35: 100.0%
[2]; compound 25.0 mM
  Relative activity (%) of Lcc35: 100.0%

## COc1cc(/C=N/N=C/c2cc(OC)c(O)c(OC)c2)cc(OC)c1O [SGZ, N,N′-bis(3,5-dimethoxy-4-hydroxybenzylidene)hydrazine]
[4]; [17]
  Kcat: 750 s⁻¹
  Km: 7 µM

## O[C@H](CS)[C@H](O)CS (racemic) [DTT, dithiothreitol]
[2]; compound 0.1 mM
  Relative activity (%) of Lcc35: 92.3%
[2]; compound 1.0 mM
  Relative activity (%) of Lcc35: 91.8%

## CCn1c(=NN=c2sc3cc(S(=O)(=O)O)ccc3n2CC)sc2cc(S(=O)(=O)O)ccc21 [ABTS, 2,2-azinobis(3-ethylbenzathiazoline-6-sulfonic acid)]
[4]; [18]
  Kcat: 730 s⁻¹
  Km: 53 µM

B1: Lcc35: novel laccase isolated from R. microporus BCRC 35318; mature form SEQ ID NO:1, precursor SEQ ID NO:2 (protein)
chain: SVGPVADIPIVNANLSPDGFTRTTVLAGGTFPGPLIVGNKGDNFKLNVVDQLTDANQLKTTTIHWHGFFQHGTNWADGPAFVNQCPIASGNSFLYDFSAADQAGTFWYHSHLSTQYCDGLRGAFVVYDPSDPNASLYDVDNESTVITLADWYHTLARLGARFPTPDSTLINGLGRFAGGPASDLSVITVESGKRYRFRLVSISCDPNYTFSIDGHDMTIIEVNGINHDALSVDSIQIFAGQRYSFVLNANQAVGNYWIRANPNIGTRGFSGGINSAILRYVGADAVEPTTSQGTSTKPLVETNLHPSQNPGAVGSPTPGGVDLALNLALGFAGGSFTINGATFTSPTVPVLLQILSGAQSATDLLPSGSVFTLPGDSTIEISMPAGVAGGPHPFHLHGHAFDVVRASGSSTYNYANPVRRDVVSLGAAGDNVTIRFKTDNPGPWFLHCHIDWHLEAGLAIVFAEDTPNTAAINPVPQAWSDLCPIYNALAESDH
modifications: RIGIDOPORUS MICROPORUS
[5]
  pH of highest laccase activity: 3-5
[6]
  pI value: 3.98
[7]
  pH at which Lcc35 was more stable: 6
[8]; ABTS or SGZ as the substrate
  laccase-specific activity relative to T. versicolor laccase: 2-3 fold
[8]; ABTS substrate, laccase amount by SDS-PAGE and ImageQuant TL 7.0
  ABTS assay, laccase-specific activity: 3800 U mg^−1
[9]
  pH of highest laccase activity: 5-6
[10]
  temperature below which Lcc35 was stable: below 50 °C
[11]
  temperature of highest laccase activity: 70 °C
[12]
  laccase activity (color change around the 55 kDa band): high laccase activity
[13]
  pH of highest laccase activity: 5-6
[14]
  SGZ assay, laccase-specific activity: 1700 U mg^−1
[15]
  enzymatic activity of purified Lcc35: 289.8 U/ml
[16]
  pH of highest laccase activity: 5-6
